Source: US12286437B2, “Cardiac sarcomere inhibitors” (Cytokinetics, Inc., priority 2021, dated 2025)

Columns and labels:
[1] = tested on: bovine cardiac myofibrils; test: Myofibril assay (ATPase activity of skinned bovine cardiac myofibrils, PK/LDH-coupled); assay type: biochemical; details: inhibition of steady-state ATPase of bovine cardiac myofibrils; CaCl2 for 50% or 75% activation
Protocol: To evaluate the effect of compounds on the ATPase activity of full-length cardiac myosin in the context of the native sarcomere, skinned myofibril assays were performed. Bovine cardiac myofibrils were obtained by homogenizing bovine cardiac left ventricular tissue in the presence of a detergent such as triton X-100. Such treatment removes membranes and a majority of the soluble cytoplasmic proteins but leaves intact the cardiac sarcomeric acto-myosin apparatus. Myofibril preparations retain the ability to hydrolyze ATP in a Ca^2+ regulated manner. ATPase activities of such myofibril preparations in the presence and absence of compounds were assayed at Ca^2+ concentrations activating to a defined fraction of the maximal rate (i.e., […], 75%). Small molecule agents were assessed for their ability to inhibit the steady-state ATPase activity of bovine cardiac myofibrils using pyruvate kinase and lactate dehydrogenase (PK/LDH)-coupled enzyme system. This assay regenerates myosin-produced ADP into ATP by oxidizing NADH, producing an absorbance change at 340 nm. Prior to testing small molecule agents, the bovine cardiac myofibrils were assessed for their calcium responsiveness and the calcium concentration that achieves either a 50% (pCa50) or 75% (pCa75) activation of the myofibril system was chosen as the final condition for assessing the inhibitory activity of the small molecule agents. All enzymatic activity was measured in a buffered solution containing 12 mM PIPES (piperazine-N,N′-bis(2-ethanesulfonic acid), 2 mM magnesium chloride at pH 6.8 (PM 12 buffer). Final assay conditions were 1 mg/mL of bovine cardiac myofibrils, 4 U/mL pyruvate kinase, 6 U/mL lactate dehydrogenase, 50 μM ATP, 0.1 mg/mL BSA (bovine serum albumin), 10 ppm antifoam, 1 mM DTT, 0.5 mM NADH, 1.5 mM PEP, 0.6 mM EGTA, and an amount of CaCl2 sufficient to achieve either 50% or 75% activation of the myofibril ATPase activity. Results for compounds tested are provided in Table A. Compounds tested were prepared in accordance with the synthetic procedures described herein.

[2] = Dog cassette dosing pharmacokinetics; assay type: in vivo, beagle dogs; details: male, beagle, plasma, IV; for Vd: read-out: Vss; for half-life: read-out: t½ (converted)
Protocol: Non-naïve male beagle dogs (8 months to 3 years of age, body weight 8-14 kg) sourced from Jiangsu Johnsen Bioresource CO. and/or Beijing Rixinkeji CO., LTD and/or Beijing Marshall Biotechnology CO., LTD were used in this study. All animals for IV administration had free access to food and water. The IV dose solution was prepared in 10% DMA/50% PG/40% HPβCD solution (40% w/v aqueous HPβCD) at a concentration of 0.2 mg/mL. Concentrations of IV dose was measured at the end of the study. PK parameters were calculated using the nominal dose values if the measured values were within 20% of the nominal values. Blood samples were collected by venipuncture of peripheral veins except the dosing vein at pre-dose, 5 15, 30 min, 1, 2, 4, 6, 8 and 24 h post-dose. Blood samples were centrifuged and resultant plasma was frozen for bioanalysis. Plasma samples were stored at −80° C. before analysis. Plasma samples were analyzed for compound concentrations using the LC/MS/MS method. Briefly, a 50 μL aliquot of each plasma sample was mixed with 100 μL of acetonitrile that contained an internal standard. The mixture was vortexed and centrifuged. Ten (10) μL of the resulting solution was injected onto a reverse-phase C18 column and the resultant peaks detected on a LC/MS/MS equipped with a turbo ionspray ionization source. Sample concentrations below the limit of quantification (BLQ) were treated as zero for PK calculations. PK parameters were estimated from individual animals using noncompartmental analysis of the concentration-time data (Phoenix WinNonLin software, version 64; Pharsight, Mountain View, CA). The elimination rate constant (k) was calculated as the absolute value of the slope of the linear regression of logarithm (log) of the concentration versus time for the last three data points of the concentration-time profiles. Apparent elimination half-life (t1/2) values were calculated as ln(2)/k. Area under the concentration-time curve (AUC) values were estimated using linear trapezoidal method. AUCt values were calculated from the dosing time to the last measurable concentration. AUC∞ values were calculated as the sum of the corresponding AUCt and the ratio of the last detectable concentration divided by k. Plasma clearance (CL) was calculated from Dose/AUC∞. Mean resident time extrapolated to infinity (MRT∞) was estimated by moment analysis. Vss was calculated from MRT∞×CL. Maximum concentration (Cmax) and time to reach Cmax (tmax) were recorded as observed. As this was a cross-over study, bioavailability was calculated dAUC∞,po/dAUC∞,iv×100% where dAUC was the dose normalized AUC value from the same animal given IV and PO dose. Data for compounds tested are provided in Table G. Compounds tested were prepared in accordance with the synthetic procedures described herein.

[3] = Rat single dose pharmacokinetics; assay type: in vivo, Sprague Dawley rats; details: male, Sprague Dawley, plasma, IV; for Vd: read-out: Vss
Protocol: Male Sprague Dawley rats were obtained from Zhejiang Vital River Laboratory Animal Technology Co., Ltd. The animals in IV group had free access to water and food. The animals in PO group were fasted overnight before dosing and provided with food 2 hours post dosing. The IV dose solution was prepared in 10% DMA/50% PG/40% HPβCD solution (40% w/v aqueous HPβCD) at a concentration of 1 mg/mL. The oral dosing suspension was prepared by suspending Test Article in 0.5% HPMC/0.1% Tween 80 in water at a concentration 0.2 mg/mL. Concentrations of IV and PO doses were measured at the end of the study. Pharmacokinetic parameters were calculated using the nominal dose values if the measured values were within 20% of the nominal values. Three rats were dosed IV via a bolus injection via caudal vein. Three rats per dose group were dosed by oral gavage. Blood samples were collected from the jugular vein cannula at predose, 5 (IV only), 15, 30 minutes, and 1, 2, 4, 6, and 24 hours post-dose. Blood volumes were replaced with an equal amount of sterile 0.9% saline. Blood samples were centrifuged and the collected plasma was stored at −80° C. for subsequent analysis. Plasma samples were analyzed for Test Article concentrations using a LC/MS/MS method. Briefly, a 50 μL aliquot of each plasma sample was mixed with 100 μL of acetonitrile that contained an internal standard. The mixture was vortexed and centrifuged. Ten (10) […] of the resulting solution was injected onto a reverse-phase C18 column and the resultant peaks detected on a LC/MS/MS equipped with a turbo ionspray ionization source. Sample concentrations below the limit of quantification (BLQ) were treated as zero for pharmacokinetic calculations. Pharmacokinetic parameters were estimated from individual animals using noncompartmental analysis of the concentration-time data (Phoenix WinNonLin software, version 64; Pharsight, Mountain View, CA). The elimination rate constant (k) was calculated as the absolute value of the slope of the linear regression of logarithm (log) of the concentration versus time for the last three data points of the concentration-time profiles. Apparent elimination half-life (t1/2) values were calculated as ln(2)/k. Area under the concentration-time curve (AUC) values were estimated using linear trapezoidal method. AUCt values were calculated from the dosing time to the last measurable concentration. AUC∞ values were calculated as the sum of the corresponding AUCt and the ratio of the last detectable concentration divided by k (AUCt-∞). Plasma clearance (CL) was calculated from Dose/AUC∞. Mean resident time (MRT) was estimated by moment analysis. Volume of distribution at steady state (Vss) was calculated from MRT∞×CL. Maximum concentration (Cmax) and time to reach Cmax (tmax) were recorded as observed. Bioavailability was calculated from the ratio of dose normalized AUC∞,po of individual rats/mean dAUC∞,iv×100% where dAUC was the dose normalized AUC value. Compounds tested were prepared in accordance with the synthetic procedures described herein.

[4] = Monkey cassette dosing pharmacokinetics; assay type: in vivo; details: IV; for clearance / Vd: male, plasma; for Vd: read-out: Vss

Row | SMILES | CDMF IC15 [1] | clearance [2] | Vd [2] | half-life [2] | clearance [3] | half-life [3] | Vd [3] | t l/2 [4] | clearance [4] | Vd [4]
1 | C[C@H]1CC[C@H](N2CC(=O)N(Cc3ccc(F)c(F)c3)C3(CN(c4cccnn4)C3)C2=O)CC1 [Compound 12, 5-(3,4-difluorobenzyl)-8-((1r,4r)-4-methylcyclohexyl)-2-(pyridazin-3-yl)-2,5,8-triazaspiro[3.5]nonane-6,9-dione] | 400 nM | 34.4 mL/min/kg | 17.8 L/kg | 7.39 h |  |  |  |  |  | 
2 | CC[C@H](C)N1CC(=O)N(Cc2ccc(F)c(C)c2)C2(CN(c3cccnn3)C2)C1=O [Compound 16, (S)-8-(sec-butyl)-5-(4-fluoro-3-methylbenzyl)-2-(pyridazin-3-yl)-2,5,8-triazaspiro[3.5]nonane-6,9-dione] | 900 nM | 33 mL/min/kg | 7.08 L/kg | 3.07 h |  |  |  |  |  | 
3 | C[C@H]1CC[C@H](N2CC(=O)N(Cc3ccc(Cl)c(F)c3)C3(CN(C(N)=O)C3)C2=O)CC1 [Compound 3, 5-(4-chloro-3-fluorobenzyl)-8-((1r,4r)-4-methylcyclohexyl)-6,9-dioxo-2,5,8-triazaspiro[3.5]nonane-2-carboxamide] | 700 nM | 7.16 mL/min/kg | 6.9 L/kg | 13.1 h | 78.5 mL/min/kg | 2.6 h | 14.7 L/kg |  |  | 
4 | CC[C@H]1CC[C@H](N2CC(=O)N(Cc3ccc(F)c(F)c3)C3(CN(C(N)=O)C3)C2=O)CC1 [Compound 11, 5-(3,4-difluorobenzyl)-8-((1r,4r)-4-ethylcyclohexyl)-6,9-dioxo-2,5,8-triazaspiro[3.5]nonane-2-carboxamide] | 700 nM | 6.3 mL/min/kg | 4.42 L/kg | 9.66 h |  |  |  | 3.03 h | 33.1 mL/min/kg | 7.26 L/kg
5 | CC[C@H]1CC[C@H](N2CC(=O)N(Cc3ccc(Cl)cc3)C3(CN(C(N)=O)C3)C2=O)CC1 [Compound 1, 5-(4-chlorobenzyl)-8-((1r,4r)-4-ethylcyclohexyl)-6,9-dioxo-2,5,8-triazaspiro[3.5]nonane-2-carboxamide] | 800 nM | 3.65 mL/min/kg | 3.44 L/kg | 12.5 h |  |  |  |  |  | 
6 | CC[C@H](C)N1CC(=O)N(Cc2ccc(F)c(F)c2)C2(CN(c3cccnn3)C2)C1=O [Compound 14, (S)-8-(sec-butyl)-5-(3,4-difluorobenzyl)-2-(pyridazin-3-yl)-2,5,8-triazaspiro[3.5]nonane-6,9-dione] | 1300 nM | 36.5 mL/min/kg | 6.44 L/kg | 2.43 h |  |  |  | 1.1 h | 17.1 mL/min/kg | 1.48 L/kg
7 | C[C@H]1CC[C@H](N2CC(=O)N(Cc3ccc(Cl)cc3)C3(CN(c4cccnn4)C3)C2=O)CC1 [Compound 10, 5-(4-chlorobenzyl)-8-((1r,4r)-4-methylcyclohexyl)-2-(pyridazin-3-yl)-2,5,8-triazaspiro[3.5]nonane-6,9-dione] | 300 nM | 36.3 mL/min/kg | 18.6 L/kg | 9.38 h |  |  |  |  |  | 
8 | C[C@H]1CC[C@H](N2CC(=O)N(Cc3ccc(F)cc3)C3(CN(c4cccnn4)C3)C2=O)CC1 [Compound 17, 5-(4-fluorobenzyl)-8-((1r,4r)-4-methylcyclohexyl)-2-(pyridazin-3-yl)-2,5,8-triazaspiro[3.5]nonane-6,9-dione] | 900 nM | 41.9 mL/min/kg | 8.25 L/kg | 3.02 h |  |  |  |  |  | 
9 | CC[C@H]1CC[C@H](N2CC(=O)N(Cc3ccc(F)cc3)C3(CN(C(N)=O)C3)C2=O)CC1 [Compound 2, 8-((1r,4r)-4-ethylcyclohexyl)-5-(4-fluorobenzyl)-6,9-dioxo-2,5,8-triazaspiro[3.5]nonane-2-carboxamide] | 2100 nM | 4.06 mL/min/kg | 1.99 L/kg | 7.34 h |  |  |  |  |  | 
10 | CC(C)N1CC(=O)N(Cc2ccc(F)c(Cl)c2)C2(CN(c3cccnn3)C2)C1=O [Compound 9, 5-(3-chloro-4-fluorobenzyl)-8-isopropyl-2-(pyridazin-3-yl)-2,5,8-triazaspiro[3.5]nonane-6,9-dione] | 1600 nM | 13.9 mL/min/kg | 3.08 L/kg | 3.65 h | 27.4 mL/min/kg | 0.925 h | 1.64 L/kg | 1.59 h | 15.2 mL/min/kg | 1.88 L/kg
11 | CCC(CC)N1CC(=O)N(Cc2ccc(F)c(F)c2)C2(CN(c3cccnn3)C2)C1=O [Compound 15, 5-(3,4-difluorobenzyl)-8-(pentan-3-yl)-2-(pyridazin-3-yl)-2,5,8-triazaspiro[3.5]nonane-6,9-dione] | 1400 nM | 24.2 mL/min/kg | 2.84 L/kg | 1.49 h |  |  |  |  |  | 
